Where two headings read alike, the source gives them in different places. Marks after values point to notes of the source that are not given here.

The record followed here is article PMC3700763, “First human dose-escalation study with remogliflozin etabonate, a selective inhibitor of the sodium-glucose transporter 2 (SGLT2), in healthy subjects and in subjects with type 2 diabetes mellitus” (BMC Pharmacology & Toxicology, 2013).

For series [1], the target named is T1, SGLT2 (Homo sapiens, UniProt P31639).
T1 construct: from tissue; host or cells: kidney (proximal tubule) of living human subjects: healthy volunteers and T2DM patients
T1 sequence (P31639 1-672): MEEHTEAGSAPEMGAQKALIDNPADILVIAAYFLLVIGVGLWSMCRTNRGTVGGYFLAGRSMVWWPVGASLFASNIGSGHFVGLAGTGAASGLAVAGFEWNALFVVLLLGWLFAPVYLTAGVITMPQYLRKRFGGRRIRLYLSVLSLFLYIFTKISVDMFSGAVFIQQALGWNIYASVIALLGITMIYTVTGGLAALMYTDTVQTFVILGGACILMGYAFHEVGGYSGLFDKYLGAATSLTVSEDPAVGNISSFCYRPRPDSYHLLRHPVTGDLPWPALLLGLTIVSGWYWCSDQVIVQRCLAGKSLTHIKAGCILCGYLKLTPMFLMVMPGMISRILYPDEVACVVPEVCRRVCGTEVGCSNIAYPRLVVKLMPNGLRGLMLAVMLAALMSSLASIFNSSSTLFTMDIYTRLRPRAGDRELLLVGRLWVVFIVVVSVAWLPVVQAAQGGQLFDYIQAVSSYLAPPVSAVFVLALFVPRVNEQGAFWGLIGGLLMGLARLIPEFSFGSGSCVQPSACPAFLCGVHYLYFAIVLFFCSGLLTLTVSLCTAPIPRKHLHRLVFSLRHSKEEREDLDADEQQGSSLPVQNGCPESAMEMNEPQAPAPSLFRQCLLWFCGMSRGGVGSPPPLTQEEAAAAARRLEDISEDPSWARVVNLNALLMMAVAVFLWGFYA
The experiment in a line: 24-h urine glucose excretion, healthy subjects. The following applies: for Filtered glucose excreted in urine / Urinary glucose excretion: 24-h, healthy subjects, mean (SD). The series is classed as in vivo. As for the experimental part:
Urine samples were collected at pre-dose, and over a series of intervals (0–2, 2–4, 4–6, 6–8, 8–12 and 12–24 h post-dose) for the analysis of creatinine, glucose and electrolytes (Na, K and Cl). All fluid intake was recorded, as well as urine volume, over the 24 hours before and after dosing in each treatment period. Urine was tested for protein on the first morning void of day -1 and 24 h after dosing.
The percentage of filtered glucose excreted in the urine for each individual time period was calculated as the amount of glucose excreted during that time period divided by (CLCR × PG × time interval length), where CLCR is the creatinine clearance for the time interval, PG is the plasma glucose concentration closest to the midpoint of the time interval, and the time interval is the period (min) of urine collection (CLCR × PG represents the glucose filtered load). For the 24-h period, the percentage of filtered glucose excreted was calculated as the amount of glucose excreted over 24 h divided by the sum over the individual time intervals of (CLCR × PG × time interval length).

Series [2] in a line: Plasma pharmacokinetics, T2DM subjects. It is filed as in vivo, human. The following applies: human, plasma analyte; for AUC(0-inf): read-out: AUC(0–∞) Geometric mean (CV%); for Cmax: read-out: Cmax Geometric mean (CV%); for Tmax: read-out: Tmax Median; for half-life: read-out: T½ Geometric mean (CV%) (converted). As for the experimental part:
Six subjects with T2DM received two doses of remogliflozin etabonate and a placebo dose, in a randomized, dose escalating, crossover design, along with an oral glucose load on three study sessions separated by 7–14 days. Full PK and safety profiles were measured on Day 1 of each dosing period. The doses selected for this portion of the study, 50 mg and 500 mg, were based on data obtained in Part A. In each dosing period, subjects were assigned to active vs placebo in a 2:1 ratio. On each dosing day, a series of 2.0 mL blood samples were collected at pre-dose and 10, 20, 30 and 45 min, and 1, 1.25, 1.5, 2, 2.5, 3, 4, 6, 8, 12, 16, and 24 h post-dose for the determination of remogliflozin etabonate, remogliflozin and GSK279782 in plasma by using high-performance liquid chromatography with tandem mass spectrometry (MS/MS) as described. Non-compartmental PK analysis of plasma concentration–time data was performed using WinNonlin Version 4.1 (Pharsight Corporation, Mountainview, CA, USA). The Cmax and Tmax were obtained directly from the data. Areas under the plasma concentration–time curves from time zero to the last quantifiable time point (AUC[0–last]) and extrapolated to infinity (AUC[0–∞]) were calculated using the log-linear trapezoidal method. The terminal plasma elimination rate-constant (λz) was estimated from log-linear regression analysis of the terminal phase of the plasma concentration–time curve, and the T½ was calculated as T½ = ln2/λz. Ratios of AUC(0–∞) remogliflozin to AUC(0–last) remogliflozin etabonate were calculated including molecular weight corrections.

The mark [3] stands for this setting: remogliflozin etabonate 50 mg oral dose.
Setting [4] is: remogliflozin etabonate 500 mg oral dose (prodrug n = 2).
The mark [5] stands for this setting: remogliflozin etabonate 500 mg oral dose.

On to `CCOC(=O)OC[C@H]1O[C@@H](Oc2nn(C(C)C)c(C)c2Cc2ccc(OC(C)C)cc2)[C@H](O)[C@@H](O)[C@@H]1O` [Remogliflozin etabonate, remogliflozin etabonate], for which the “Filtered glucose excreted in urine” value in series [1] (20 mg single dose) was 9.0 (2.2) %; in series [1] (50 mg single dose, n = 7) it was 12.7 (3.7)^b %; in series [1] (150 mg single dose, n = 7), 25.5 (7.8)^b %; in series [1] (500 mg single dose) it was 34.2 (5.0) %; in series [1] (1000 mg single dose), 26.4 (11.7) %. Further, the Urinary glucose excretion in series [1] (20 mg single dose) was 67.1 (17.9) mmol; in series [1] (50 mg single dose, n = 7) it was 96.7 (17.1)^b mmol; in series [1] (150 mg single dose, n = 7), 168 (49.4)^b mmol; in series [1] (500 mg single dose), 223 (49.5) mmol; in series [1] (1000 mg single dose), 304 (137) mmol. In series [1] (both populations, less than proportional to dose), the “Total amount of glucose excreted in urine from 0–24 h, dose dependence” value is “increased in a dose-dependent manner”. For the same molecule, the values for the AUC(0-inf) in series [2] (setting [3]) and in series [2] (setting [4]) were 8.91 ng·h/mL and 91.9 ng·h/mL, respectively. Also, the Cmax amounted to 9.56 ng/mL in series [2] (setting [3]) and 83.9 ng/mL in series [2] (setting [5]). The Tmax in series [2] (setting [3]) is 34.8 min; in series [2] (setting [5]) it was 45 min. Besides, the results for the half-life in series [2] (setting [3]) and in series [2] (setting [4]) were 36.6 min and 49.2 min, respectively.
